{"source": "patent US10800726B2", "about": "“Rexinoid compounds and methods of using rexinoid compounds for treating metabolic disorders and cancer” (THE UAB RESEARCH FOUNDATION, priority 2014, dated 2020)", "key": {"[1]": {"tested_on": "estrogen-negative mammary cancers", "assay": "DMBA-induced mammary carcinogenesis in transgenic erbB2+/− mice", "type": "in vivo", "settings": "orally administered, female transgenic erbB2+/− mice, vs control mice, FIG. 1", "from_the_text": "FIG. 1 is a graph showing the efficacy of 9-cis-UAB30, TARGRETIN, Compound UAB125, and Compound UAB126 in preventing the formation of mammary cancers in ErbB2^+/− female mice. The first bar represents the controls for 9-cis-UAB30 and TARGRETIN. The fourth bar represents the controls for UAB125 and UAB126.\nMammary carcinogenesis was induced in female, transgenic erbB2^+/− mice using 7,12-Dimethylbenz[a]anthracene (DMBA). The mice were orally administered 9-cis-UAB30 (a tissue selective rexinoid), TARGRETIN® (Valeant Pharmaceuticals, West Laurel, Calif.) (i.e., bexarotene, which is a potent RXR agonist), UAB125, or UAB126. The control mice were not administered any compounds. […] Specifically, UAB125 and UAB126 prevented the formation of 68% and 79%, respectively, of the estrogen-negative mammary cancers, while 9-cis-UAB30 and TARGRETIN® prevented only 54% and 65%, respectively."}, "[2]": {"assay": "High fat diet-induced obesity: body weight, body composition (QMR), food intake", "type": "in vivo, C57BL/6J mice", "from_the_text": "(§1) Twelve C57BL/6J mice were randomly divided into two groups, namely high fat diet (HFD) (60% of calories from fat) fed with or without Compound UAB126 (1.5 g/kg food) for 10 weeks.\n(§2) Also, fasting glucose levels in mice fed HFD with Compound UAB126 were lower than mice fed HFD (FIG. 5). […] Food intake was not different between the 2 groups."}, "[3]": {"assay": "Glucose tolerance, insulin sensitivity and fasting glucose in high fat diet fed mice", "type": "in vivo, C57BL/6J mice", "settings": "HFD with compound", "from_the_text": "as §1, §2"}, "[4]": {"assay": "Serum triglyceride, cholesterol and free fatty acids in high fat diet fed mice", "type": "in vivo, C57BL/6J mice", "from_the_text": "as §1\nPreviously developed rexinoids have the adverse side effect of elevating serum triglyceride (TG) level. […] Thus, Compound UAB126 can regulate lipid metabolism."}, "[5]": {"settings": "QMR, normalized by body weight, FIG. 6B"}, "[6]": {"settings": "QMR, without normalization, FIG. 6A"}}, "data": [{"smiles": "Cc1ccc(-c2cccc(C=CC(=O)O)c2)c2ccccc12", "note": "(single isomer, unassigned) [UAB125, 3-(3-(4-methyl-1-naphthyl)phenyl)propenoic acid]", "values": [{"measurement": "prevention of formation of estrogen-negative mammary cancers", "setting": "[1]", "value": 68, "unit": "%"}]}, {"smiles": "C=C(c1ccc(C(=O)O)cc1)c1cc2c(cc1C)C(C)(C)CCC2(C)C", "note": "[TARGRETIN, bexarotene, reference compound]", "values": [{"measurement": "prevention of formation of estrogen-negative mammary cancers", "setting": "[1]", "value": 65, "unit": "%"}]}, {"smiles": "CC(=C/C=C/C(C)=C/C(=O)O)/C=C1\\CCCc2ccccc21", "note": "[Compound 9-cis-UAB30, reference compound]", "values": [{"measurement": "prevention of formation of estrogen-negative mammary cancers", "setting": "[1]", "value": 54, "unit": "%"}]}, {"smiles": "O=C(O)C=Cc1ccc(-c2cccc3ccccc23)cc1", "note": "(single isomer, unassigned) [UAB126, 3-(4-(1-naphthyl)phenyl)propenoic acid]", "values": [{"measurement": "prevention of formation of estrogen-negative mammary cancers", "setting": "[1]", "value": 79, "unit": "%"}, {"measurement": "final body weight (avg.)", "setting": "[2]; HFD (60% of calories from fat) with compound 1.5 g/kg food, 10 weeks, avg. initial 22.5 g, HFD alone: initial 23 g, final 40 g, FIG. 2", "value": 27.8, "unit": "g"}, {"measurement": "body weight gain compared to HFD fed mice without compound", "setting": "[2]; HFD with compound 1.5 g/kg food, 10 weeks, FIG. 2", "value": "gained less body weight"}, {"measurement": "fat mass normalized by body weight, compared to HFD fed mice", "setting": "[2]; [5]", "value": "less fat mass"}, {"measurement": "lean mass normalized by body weight, compared to HFD fed mice", "setting": "[2]; [5]", "value": "more lean mass"}, {"measurement": "fat mass", "setting": "[2]; [6]", "value": "markedly reduced"}, {"measurement": "lean mass", "setting": "[2]; [6]", "value": "slightly reduced"}, {"measurement": "glucose tolerance vs mice fed HFD alone", "setting": "[3]; FIG. 3", "value": "more glucose tolerant"}, {"measurement": "insulin sensitivity vs mice fed HFD alone", "setting": "[3]; FIG. 4", "value": "insulin sensitive"}, {"measurement": "fasting glucose levels vs mice fed HFD", "setting": "[3]; FIG. 5", "value": "lower"}, {"measurement": "serum triglyceride levels", "setting": "[4]; HFD with compound vs HFD, FIG. 7", "value": "significantly reduced"}, {"measurement": "serum cholesterol", "setting": "[4]; compared to HFD vehicle treated mice, FIG. 8A", "value": "significantly decreased"}, {"measurement": "serum free fatty acids (FFA)", "setting": "[4]; compared to HFD vehicle treated mice, FIG. 8B", "value": "significantly decreased"}]}]}
